In BindingDB's records for doi:10.1002/cbic.201402089 (University of Santiago De Compostela, 2014):
Several values for one entry are separate records, joined by “and”; a condition that tells them apart may be missing. Equal entries are not always repeated.

Target: T1, Kinesin-like protein KIF11 [1-973] (Homo sapiens, UniProt P52732)
T1 construct: 1-973
T1 sequence (P52732 whole entry): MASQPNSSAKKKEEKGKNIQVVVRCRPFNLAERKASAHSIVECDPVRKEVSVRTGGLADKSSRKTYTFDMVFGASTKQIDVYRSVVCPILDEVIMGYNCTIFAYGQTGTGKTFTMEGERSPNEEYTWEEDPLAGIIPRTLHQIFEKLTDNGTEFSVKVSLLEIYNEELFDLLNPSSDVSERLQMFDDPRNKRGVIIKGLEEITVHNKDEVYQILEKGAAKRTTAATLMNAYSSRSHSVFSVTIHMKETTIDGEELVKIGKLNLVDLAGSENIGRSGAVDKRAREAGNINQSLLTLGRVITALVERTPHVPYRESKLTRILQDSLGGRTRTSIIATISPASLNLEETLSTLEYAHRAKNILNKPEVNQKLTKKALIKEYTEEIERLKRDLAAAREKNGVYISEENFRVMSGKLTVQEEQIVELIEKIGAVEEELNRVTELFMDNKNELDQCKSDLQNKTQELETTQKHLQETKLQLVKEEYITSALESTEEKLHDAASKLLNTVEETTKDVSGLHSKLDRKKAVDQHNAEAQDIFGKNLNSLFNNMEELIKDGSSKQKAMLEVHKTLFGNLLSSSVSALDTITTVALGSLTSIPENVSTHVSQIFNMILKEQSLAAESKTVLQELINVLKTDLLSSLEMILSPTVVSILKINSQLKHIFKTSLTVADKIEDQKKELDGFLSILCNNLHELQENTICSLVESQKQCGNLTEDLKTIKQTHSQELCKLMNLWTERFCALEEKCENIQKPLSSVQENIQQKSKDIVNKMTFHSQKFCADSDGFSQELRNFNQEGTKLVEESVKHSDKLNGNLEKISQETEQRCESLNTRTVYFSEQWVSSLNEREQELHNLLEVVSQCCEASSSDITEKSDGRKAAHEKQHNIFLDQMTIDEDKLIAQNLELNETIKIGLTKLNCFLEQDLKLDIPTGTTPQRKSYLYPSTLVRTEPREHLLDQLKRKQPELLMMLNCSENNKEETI
Experiment: Microtubule-activated ATPase Kinetic Assay

Row | IC50 | Structure (SMILES)
1 | 2290 nM | CCOC(=O)CNC(=O)C(C1CC1)n1c(Cc2ccccc2)nc2cc(Br)c(Br)cc21 (stereo not given) [Ethyl 2-[2-(2-benzyl-5,6-dibromo-1H-benzo[d]imidazol-1-yl)-2-cyclopropylacetamido] acetate (Compound 12)]
2 | 1600 nM | CCCC(C(=O)NCC(=O)OCC)n1c(Cc2ccccc2)nc2cc(Cl)c(Cl)cc21 (stereo not given) [Ethyl 2-[2-(2-benzyl-5,6-dichloro-1H-benzo[d]imidazol-1-yl)pentanamido] acetate (Compound 9)]
3 | 6900 nM | CCOC(=O)C1C(C)=NC(=S)NC1c1cccc(O)c1 (stereo not given) [ethyl 4-(3-hydroxyphenyl)-6-methyl-2-sulfanylidene-3,4-dihydro-1H-pyrimidine-5-carboxylate]

Continued, compound first:

Row | Structure (SMILES) | IC50
4 | CCOC(=O)CNC(=O)C(C1CC1)n1c(C(=O)c2ccccc2)nc2cc(Br)c(Br)cc21 (stereo not drawn) [(−)-Ethyl 2-[2-(2-benzoyl-5,6-dibromo-1H-benzo[d]imidazol-1-yl)-2 cyclopropylacetamido] acetate (Compound 21)] | 1490 nM and 2520 nM
5 | CCCC(C(=O)NCC(=O)OCC)n1c(C(=O)c2ccccc2)nc2cc(Br)c(Br)cc21 (stereo not drawn) [(−)-Ethyl 2-[2-(2-benzoyl-5,6-dibromo-1H-benzo[d]imidazol-1-yl)pentanamido]acetate (Compound 23)] | 1370 nM and 1720 nM
